In patent US11090266B2, “Nanoliposomal c-MYC-siRNA inhibits in vivo tumor growth of cisplatin-resistant ovarian cancer” (priority 2014, dated 2021):

Test system: A2780CP20 tumors
Assay: Therapeutic efficacy in A2780CP20 tumor-bearing nude mice
Assay type: in vivo
Conditions: siRNA-DOPC 5 μg siRNA/injection, CIS 160 μg/injection, i.p. once a week for 4 weeks
Experimental: c-MYC was overexpressed in cells with low c-MYC levels (A2780) (FIG. 16A). The rate of cell proliferation of these cells were higher compared with empty vectors (FIG. 16B). The effect of nanoliposomal-c-MYC-siRNA was tested on target depletion, and therapy efficacy. Nude mice were injected intraperitoneally (i.p.) with A2780CP20 cells. A nude mice-bearing tumors were injected i.p. with nanoliposomal siRNAs. Seven days post-injection, mice were sacrificed and the tumors were dissected. As shown is FIG. 18A, the anti-tumor effects of nanoliposomal-c-MYC-siRNA as compared to C-siRNA were tested in tumor-bearing mice. […] All nanoliposomal-c-MYC-siRNAs and CIS treatments were injected i.p. once a week for 4 weeks. In vitro experiments were repeated in HEYA8 ovarian cancer cells which express high c-MYC levels (FIG. 19A-19D). Additional liposomal c-MYc-siRNA formulation was performed (FIG. 20A-20D) and FIGS. 22 and 23). […]
As shown in FIG. 16A-16B the directed effect effects of c-MYC overexpression in ovarian cancer cells. […] Cell viability was calculated. […]
DOPC-PEG-cholesterol-based nanoliposomes were used for in vivo c-MYC-siRNA delivery. First, we assessed whether the c-MYC silencing in vivo. […] Tumor weight and number of nodules were assessed in five treatment groups (10 mice each): (a) C-siRNA, (b) cisplatin (CIS) alone, (c) c-MYC-siRNA, (d) C-siRNA plus CIS, and (e) c-MYC-siRNA plus CIS. […]

N.N.[Cl][Pt][Cl] [CIS, cisplatin]
tumor weight / tumor growth: did not induce a significant effect on tumor growth
